What was measured:
Assay type in all cases: biochemical
HDAC6 = molecular target: T1, HDAC6 (Homo sapiens, UniProt Q9UBN7); assay: Human HDAC enzyme inhibitor Fluor-de-Lys assay, HDAC6; details: 1.3 nM enzyme, 2.5 μM substrate BML-KI104, 3 h pre-incubation, 60 min reaction; read-out: HDAC6_IC50
T1 sequence (Q9UBN7 1-1215): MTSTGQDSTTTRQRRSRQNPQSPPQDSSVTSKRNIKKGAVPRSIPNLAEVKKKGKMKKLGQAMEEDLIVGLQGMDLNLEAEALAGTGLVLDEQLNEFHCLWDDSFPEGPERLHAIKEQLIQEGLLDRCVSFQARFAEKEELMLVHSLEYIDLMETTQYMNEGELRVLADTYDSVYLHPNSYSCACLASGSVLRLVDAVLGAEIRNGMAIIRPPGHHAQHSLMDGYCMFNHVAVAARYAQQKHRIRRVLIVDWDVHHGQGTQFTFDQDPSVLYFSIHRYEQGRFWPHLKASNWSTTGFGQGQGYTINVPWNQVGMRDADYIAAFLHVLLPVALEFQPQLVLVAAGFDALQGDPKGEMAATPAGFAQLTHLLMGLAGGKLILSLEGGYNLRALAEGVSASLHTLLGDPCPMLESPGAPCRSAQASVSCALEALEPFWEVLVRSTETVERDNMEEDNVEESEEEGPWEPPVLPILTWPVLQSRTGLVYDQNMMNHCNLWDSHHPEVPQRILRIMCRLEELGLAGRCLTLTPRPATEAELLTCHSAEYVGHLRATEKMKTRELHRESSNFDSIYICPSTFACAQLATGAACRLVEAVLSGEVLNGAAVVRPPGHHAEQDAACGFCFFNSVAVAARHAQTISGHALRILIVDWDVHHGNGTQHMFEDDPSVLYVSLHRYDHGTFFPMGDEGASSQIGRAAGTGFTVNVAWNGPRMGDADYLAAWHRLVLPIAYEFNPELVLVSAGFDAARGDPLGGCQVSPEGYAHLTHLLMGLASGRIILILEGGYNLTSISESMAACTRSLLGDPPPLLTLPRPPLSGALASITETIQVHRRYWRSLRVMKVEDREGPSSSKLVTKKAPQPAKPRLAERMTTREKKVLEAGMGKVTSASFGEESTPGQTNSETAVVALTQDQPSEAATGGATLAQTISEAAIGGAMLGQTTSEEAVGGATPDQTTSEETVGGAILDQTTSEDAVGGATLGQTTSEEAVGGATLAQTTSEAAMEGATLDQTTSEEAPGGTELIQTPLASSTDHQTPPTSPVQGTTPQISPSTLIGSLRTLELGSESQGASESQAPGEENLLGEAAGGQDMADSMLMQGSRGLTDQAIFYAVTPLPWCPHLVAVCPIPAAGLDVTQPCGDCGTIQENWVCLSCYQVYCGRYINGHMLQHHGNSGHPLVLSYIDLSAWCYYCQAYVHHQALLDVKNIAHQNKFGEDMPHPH
Text: (§1) Recombinant human HDAC8 (catalog number BML-SE145-0100) and HDAC10 (catalog number BML-SE559-0050) enzymes, HDAC substrates BML-KI104 and BML-KI178, and HDAC developer solutions BML-KI105 and BML-KI176 were purchased from Enzo Life Sciences (Farmingdale, NY). Recombinant human HDAC5 and HDAC11 were purchased from BPS Bioscience (San Diego, CA)(catalog numbers 50045 and 50021). Substrate Boc-Lys(TFA)-AMC was obtained from Bachem (Bupendorf, Switzerland) (catalog number 1-1985). HDAC inhibitor suberoylanilide hydroxamic acid (SAHA) was obtained from Indofine (Hillsborough Township, NJ) and trichostatin A (TSA) was obtained from Sigma-Aldrich (St. Louis, MO). […] HEPES pH 8.0 was obtained from Boston BioProducts (Ashland, MA), Tween-20 from Fisher Scientific (Hampton, NH)(catalog number BP337), TCEP from Calbiochem and 7.5% bovine serum albumin (BSA) from Life Technologies (Carlsbad, CA) (catalog number 15260037). 384-well, black assay plates were obtained from Corning (Corning, NY) (catalog number 3575).
(§2) The histone deacetylase activities of HDAC1, HDAC2, HDAC3, HDAC6, and HDAC8 were measured in modified Fluor-de-Lys assays in 384-well format. In this assay, HDAC enzymes are initially incubated with an ε-acetyl (or -trifluoroacetyl)-L-lysine-containing substrate with a C-terminal amide having aminomethylcoumarin as the amine component. HDACs cleave the ε-acetyl group, rendering the resulting product susceptible to AMC cleavage by trypsin. The released AMC is then detected by its fluorescence.
(§3) The HDAC 1, 2 assays employed buffer A, which contained 20 mM HEPES, pH 8.0, 1 mM MgCl2, 137 mM NaCl, 2.7 mM KCl, 0.05% BSA. The HDAC3/SMRT assay employed buffer B, consisting of 20 mM HEPES, pH 8.0, 1 mM MgCl2, 50 mM NaCl, 2.7 mM KCl, 0.05% BSA, 0.005% Tween 20, and 10 μM IP4. The HDAC6 assay employed buffer C, consisting of 20 mM HEPES, pH 8.0, 1 mM MgCl2, 137 mM NaCl, 2.7 mM KCl, 0.5 mM TCEP (Calbiochem) and 0.05% BSA. The HDAC8 assay employed buffer D, consisting of 20 mM HEPES, pH 8.0, 1 mM MgCl2, 100 mM NaCl, 20 mM KCl, 0.1% n-octyl-β-D-glucoside (Anatrace, Maumee, OH) and 0.05% BSA. All steps were performed at room temperature (23° C.). The assay was performed by pre-incubating serial dilutions of test compounds with the target HDAC prior to initiation with substrate. Each compound was titrated in a 10-point dose response, using a 1:3 fold dilution scheme, with 0.15 ul of solution added by ECHO555 to the plate, followed by the addition of 20 μl of the appropriate HDAC isoform diluted in appropriate assay buffer. […] Final conditions used for each assay were: 1. HDAC 1, 0.3 nM total enzyme, 20 μM substrate BML-K1104; 2. HDAC 2, 1.5 nM total enzyme, 40 μM substrate BML-K1104; 3. HDAC 3/SMRT, 0.3 nM total enzyme, 20 μM substrate BML-K1104; 4. HDAC 6, 1.3 nM total enzyme, 2.5 μM substrate BML-K1104; 5. HDAC 8, 1.3 nM total enzyme, 200 μM substrate BML-K1178; the final high dose of test compound was 30 μM. For potent compounds, 900 nM was used as the final high dose. The reactions were stopped and developed by addition of 30 ul of HDAC developer solution containing a saturating level of HDAC inhibitor as follows: 1.

human HDAC8 = molecular target: T2, human HDAC8 (Homo sapiens, UniProt Q9BY41); assay: Human HDAC enzyme inhibitor Fluor-de-Lys assay, HDAC8; details: 1.3 nM enzyme, 200 μM substrate BML-KI178, 3 h pre-incubation, 60 min reaction; read-out: HDAC8_IC50
T2 construct: purchased Enzo Life Sciences BML-SE145-0100
T2 sequence (Q9BY41 1-377): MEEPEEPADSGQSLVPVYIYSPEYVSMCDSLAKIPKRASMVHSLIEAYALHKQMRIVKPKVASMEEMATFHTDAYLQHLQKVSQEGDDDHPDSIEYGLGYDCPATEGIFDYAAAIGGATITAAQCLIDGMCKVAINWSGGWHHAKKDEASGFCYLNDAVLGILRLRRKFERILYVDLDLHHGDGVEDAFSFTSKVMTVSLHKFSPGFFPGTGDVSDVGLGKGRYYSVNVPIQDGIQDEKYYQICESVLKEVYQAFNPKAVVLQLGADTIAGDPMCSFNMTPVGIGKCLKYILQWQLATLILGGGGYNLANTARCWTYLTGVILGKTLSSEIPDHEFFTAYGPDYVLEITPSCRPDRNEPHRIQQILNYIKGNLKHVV
Text: as §1, §2, §3

human HDAC2 = molecular target: T3, human HDAC2 (Homo sapiens, UniProt Q92769); assay: Human HDAC enzyme inhibitor Fluor-de-Lys assay, HDAC2; details: 1.5 nM enzyme, 40 μM substrate BML-KI104, 3 h pre-incubation, 60 min reaction; read-out: HDAC2_IC50
T3 construct: Full length human HDAC2-FLAG was expressed in baculovirus infected Sf9 cells; host or cells: baculovirus infected Sf9 cells
T3 sequence (Q92769 whole entry): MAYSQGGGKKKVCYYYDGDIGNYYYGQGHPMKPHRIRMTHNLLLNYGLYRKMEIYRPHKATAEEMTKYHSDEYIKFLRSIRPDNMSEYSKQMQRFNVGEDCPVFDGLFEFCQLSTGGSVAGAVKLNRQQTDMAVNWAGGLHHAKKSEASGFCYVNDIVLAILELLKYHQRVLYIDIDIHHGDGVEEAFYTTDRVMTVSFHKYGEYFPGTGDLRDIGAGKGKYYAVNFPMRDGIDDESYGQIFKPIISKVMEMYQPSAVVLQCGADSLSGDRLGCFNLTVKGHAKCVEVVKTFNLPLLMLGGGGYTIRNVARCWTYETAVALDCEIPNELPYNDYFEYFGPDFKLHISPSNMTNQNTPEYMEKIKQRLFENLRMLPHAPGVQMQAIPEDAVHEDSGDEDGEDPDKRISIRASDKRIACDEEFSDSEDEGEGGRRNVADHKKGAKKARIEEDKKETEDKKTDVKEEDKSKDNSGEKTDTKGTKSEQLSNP
Text: as §1
(§4) Recombinant human HDAC1, HDAC2, and HDAC3/SMRT heterodimer were prepared by Merck Research Laboratories. […] The eluted protein was then passed over an anti-HDAC1 immunoaffinity column to remove any complexes containing HDAC1. […]
as §2
as §3, with “For potent compounds, 900 nM was used as the final high dose.” left out

[1] = molecular target: T4, human HDAC3/SMRT heterodimer (Homo sapiens, UniProt O15379); assay: Human HDAC enzyme inhibitor Fluor-de-Lys assay, HDAC3/SMRT; details: HDAC3/SMRT 0.3 nM enzyme, 20 μM substrate BML-KI104, 10 μM IP4, 3 h pre-incubation, 60 min reaction; read-out: HDAC3_IC50
T4 construct: Full length human HDAC3-FLAG was expressed in HEK-293F cells along with SMRT; host or cells: HEK-293F cells
T4 sequence (O15379 whole entry): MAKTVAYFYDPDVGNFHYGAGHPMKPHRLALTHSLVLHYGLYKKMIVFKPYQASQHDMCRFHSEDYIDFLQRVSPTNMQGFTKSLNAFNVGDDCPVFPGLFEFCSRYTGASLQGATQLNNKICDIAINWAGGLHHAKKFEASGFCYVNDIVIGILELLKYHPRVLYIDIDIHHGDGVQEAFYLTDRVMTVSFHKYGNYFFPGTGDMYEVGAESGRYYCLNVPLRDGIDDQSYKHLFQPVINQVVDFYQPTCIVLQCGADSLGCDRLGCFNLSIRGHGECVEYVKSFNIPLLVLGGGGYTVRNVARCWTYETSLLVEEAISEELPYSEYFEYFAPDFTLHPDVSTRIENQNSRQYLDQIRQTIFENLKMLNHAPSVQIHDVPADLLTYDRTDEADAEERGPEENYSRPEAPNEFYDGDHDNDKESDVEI
T4 sequence (Q9Y618 1-899 partner limits assumed): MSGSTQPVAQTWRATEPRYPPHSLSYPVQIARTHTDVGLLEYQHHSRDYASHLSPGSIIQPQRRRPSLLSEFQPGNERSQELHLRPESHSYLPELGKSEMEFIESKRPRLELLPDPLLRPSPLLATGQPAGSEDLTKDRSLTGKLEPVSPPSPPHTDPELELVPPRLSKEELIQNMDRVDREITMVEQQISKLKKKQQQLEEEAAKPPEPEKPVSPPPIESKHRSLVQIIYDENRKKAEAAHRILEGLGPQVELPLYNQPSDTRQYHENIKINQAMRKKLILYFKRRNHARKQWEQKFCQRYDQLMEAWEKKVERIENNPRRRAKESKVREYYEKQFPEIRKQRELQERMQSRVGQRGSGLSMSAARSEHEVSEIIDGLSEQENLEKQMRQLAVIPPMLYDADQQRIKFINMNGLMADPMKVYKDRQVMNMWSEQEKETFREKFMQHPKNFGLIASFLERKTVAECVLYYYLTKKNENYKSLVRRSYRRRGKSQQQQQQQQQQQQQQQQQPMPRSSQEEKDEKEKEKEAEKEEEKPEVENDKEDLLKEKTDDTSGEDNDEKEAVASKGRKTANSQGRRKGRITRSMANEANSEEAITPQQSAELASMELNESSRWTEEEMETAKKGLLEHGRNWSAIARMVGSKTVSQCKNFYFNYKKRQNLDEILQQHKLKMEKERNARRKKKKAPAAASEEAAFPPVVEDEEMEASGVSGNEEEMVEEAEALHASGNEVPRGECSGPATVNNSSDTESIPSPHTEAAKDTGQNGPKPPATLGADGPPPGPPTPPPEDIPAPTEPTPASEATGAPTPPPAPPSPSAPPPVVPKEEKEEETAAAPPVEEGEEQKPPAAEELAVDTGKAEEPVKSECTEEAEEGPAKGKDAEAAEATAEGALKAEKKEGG
Text: as §1, §4, §2
as §3, with “For potent compounds, 900 nM was used as the final high dose.” left out

IC50 (HDAC6) [µM] | IC50 (human HDAC8) [µM] | IC50 (human HDAC2) [µM] | IC50 [1] [µM] | SMILES
23.3 | > 45 | – | – | CCC(=O)CCCOC[C@H](NC(=O)[C@H]1CC12CCN(C)CC2)c1ncc(-c2cc3ccccc3nc2OC)[nH]1 [Compound 4, (S)—N—((R)-1-(5-(2-methoxyquinolin-3-yl)-1H-imidazol-2-yl)-2-((4-oxohexyl)oxy)ethyl)-6-methyl-6-azaspiro[2.5]octane-1-carboxamide]
– | – | 4.35 | 0.298 | CCC(=O)CCCOC[C@H](NC(=O)C1CN(C)C1)c1ncc(-c2cc3ccccc3nc2OC)[nH]1 [Compound 3, (R)—N-(1-(5-(2-methoxyquinolin-3-yl)-1H-imidazol-2-yl)-2-((4-oxohexyl)oxy)ethyl)-1-methylazetidine-3-carboxamide]

— US12365674B2, “Inhibitors of histone deacetylase useful for the treatment or prevention of HIV infection” (Merck Sharp & Dohme LLC, priority 2019, dated 2025)
